Experimental data reported in ChEMBL document CHEMBL1201862, “PubChem BioAssay data set” (2004).
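Grown in 96-well plates, cells were treated for 48 hours with each compound at five concentrations. Insufficient inhibition: endpoint recorded as highest concentration tested. Abbreviation: GI50, concentration required for 50% inhibition of growth.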 Activity calls are given as the source filed them. Cut-off read from the data, not from the text of the source: active = GI50 up to about 1.1 µM and inactive = higher.

Legend:
Test in all cases: NCI anticancer screen, dose series, 48 h
SF-268 = test system: SF-268
MDA-MB-231 = test system: MDA-MB-231
SF-295 = test system: SF-295
UO-31 = test system: UO-31
UACC-62 = test system: UACC-62
SK-OV-3 = test system: SK-OV-3
SNB-75 = test system: SNB-75
OVCAR-4 = test system: OVCAR-4
BT-549 = test system: BT-549
HCT-15 = test system: HCT-15
COLO 205 = test system: COLO 205
HCT-116 = test system: HCT-116
OVCAR-8 = test system: OVCAR-8
SK-MEL-28 = test system: SK-MEL-28
MCF7 = test system: MCF7
CCRF-CEM = test system: CCRF-CEM
K562 = test system: K562
OVCAR-5 = test system: OVCAR-5
SN12C = test system: SN12C
PC-3 = test system: PC-3
U-251 = test system: U-251
HOP-92 = test system: HOP-92
Malme-3M = test system: Malme-3M
UACC-257 = test system: UACC-257
SNB-19 = test system: SNB-19
SK-MEL-5 = test system: SK-MEL-5
ACHN = test system: ACHN
SF-539 = test system: SF-539
MDA-MB-435 = test system: MDA-MB-435
HL-60 = test system: HL-60
MOLT-4 = test system: MOLT-4
DU-145 = test system: DU-145
NCI/ADR-RES = test system: NCI/ADR-RES
NCI-H23 = test system: NCI-H23
RPMI-8226 = test system: RPMI-8226
SK-MEL-2 = test system: SK-MEL-2
MDA-N = test system: MDA-N
SW-620 = test system: SW-620
TK-10 = test system: TK-10
HT-29 = test system: HT-29
A549 = test system: A549
NCI-H522 = test system: NCI-H522
RXF 393 = test system: RXF 393
HOP-62 = test system: HOP-62
LOX IMVI = test system: LOX IMVI
Hs-578T = test system: Hs-578T
KM12 = test system: KM12
A498 = test system: A498
SR = test system: SR
CAKI-1 = test system: CAKI-1
T47D = test system: T47D
NCI-H460 = test system: NCI-H460
OVCAR-3 = test system: OVCAR-3
786-0 = test system: 786-0
EKVX = test system: EKVX
NCI-H226 = test system: NCI-H226
HCC 2998 = test system: HCC 2998
M14 = test system: M14
IGROV-1 = test system: IGROV-1

Compound: C[n+]1c2ccccc2n2c3ccccc3c(NCCCN3CCOCC3)c(C#N)c21
- GI50 (SF-268): 1.11 µM (active)
- GI50 (MDA-MB-231): 0.804 µM (active)
- GI50 (SF-295): 2.8 µM (inactive)
- GI50 (UO-31): 2.95 µM (inactive)
- GI50 (UACC-62): 3.03 µM (inactive)
- GI50 (SK-OV-3): 2.5 µM (inactive)
- GI50 (SNB-75): 2.23 µM (inactive)
- GI50 (OVCAR-4): 1.56 µM (inactive)
- GI50 (BT-549): 12 µM (inactive)
- GI50 (HCT-15): 4.65 µM
- GI50 (COLO 205): 0.891 µM (active)
- GI50 (HCT-116): 0.703 µM (active)
- GI50 (OVCAR-8): 0.843 µM (active)
- GI50 (SK-MEL-28): 3.32 µM (inactive)
- GI50 (MCF7): 0.564 µM (active)
- GI50 (CCRF-CEM): 8.17 µM (inactive)
- GI50 (K562): 1.73 µM (inactive)
- GI50 (OVCAR-5): 1.44 µM (inactive)
- GI50 (SN12C): 0.597 µM (active)
- GI50 (PC-3): 1.31 µM (inactive)
- GI50 (U-251): 1.52 µM (inactive)
- GI50 (HOP-92): 62.8 µM (inactive)
- GI50 (Malme-3M): 2.05 µM (inactive)
- GI50 (UACC-257): 2.99 µM (inactive)
- GI50 (SNB-19): 3.08 µM (inactive)
- GI50 (SK-MEL-5): 2 µM (inactive)
- GI50 (ACHN): 2.61 µM (inactive)
- GI50 (SF-539): 0.556 µM (active)
- GI50 (MDA-MB-435): 1.78 µM (inactive)
- GI50 (HL-60): 8.13 µM (inactive)
- GI50 (MOLT-4): 0.498 µM (active)
- GI50 (DU-145): 2.13 µM (inactive)
- GI50 (NCI/ADR-RES): > 41.4 µM (inactive)
- GI50 (NCI-H23): 1.29 µM (inactive)
- GI50 (RPMI-8226): 0.726 µM (active)
- GI50 (SK-MEL-2): 1.91 µM (inactive)
- GI50 (MDA-N): 1.04 µM (active)
- GI50 (SW-620): 0.849 µM (active)
- GI50 (TK-10): 1.58 µM (inactive)
- GI50 (HT-29): 2.37 µM (inactive)
- GI50 (A549): 3.33 µM (inactive)
- GI50 (NCI-H522): 0.652 µM (active)
- GI50 (RXF 393): 1.37 µM (inactive)
- GI50 (HOP-62): 1.27 µM (inactive)
- GI50 (LOX IMVI): 0.839 µM (active)
- GI50 (Hs-578T): 1.41 µM (inactive)
- GI50 (KM12): 1.61 µM (inactive)
- GI50 (A498): 8.87 µM (inactive)
- GI50 (SR): 2.81 µM (inactive)
- GI50 (CAKI-1): 2.45 µM (inactive)
- GI50 (T47D): 2.32 µM (inactive)
- GI50 (NCI-H460): 0.684 µM (active)
- GI50 (OVCAR-3): 2.61 µM (inactive)
- GI50 (786-0): 1.04 µM (active)
- GI50 (EKVX): 2.9 µM (inactive)
- GI50 (NCI-H226): 1.86 µM (inactive)
- GI50 (HCC 2998): 1.27 µM (inactive)
- GI50 (M14): 2.4 µM (inactive)

Compound: NCC1OC(OC2C(N)CC(N)C(O)C2OC2OC(CO)C(O)C2O)C(N)C(O)C1O (stereo not drawn)
- GI50 (SF-268): > 100 µM (inactive)
- GI50 (MDA-MB-231): > 50 µM (inactive)
- GI50 (SF-295): > 100 µM (inactive)
- GI50 (UO-31): > 100 µM (inactive)
- GI50 (UACC-62): > 100 µM (inactive)
- GI50 (SK-OV-3): > 50 µM (inactive)
- GI50 (SNB-75): 27.8 µM (inactive)
- GI50 (OVCAR-4): > 100 µM (inactive)
- GI50 (BT-549): > 100 µM (inactive)
- GI50 (HCT-15): > 100 µM
- GI50 (OVCAR-8): > 50 µM (inactive)
- GI50 (SK-MEL-28): > 100 µM (inactive)
- GI50 (MCF7): > 100 µM (inactive)
- GI50 (CCRF-CEM): > 100 µM (inactive)
- GI50 (K562): > 100 µM (inactive)
- GI50 (OVCAR-5): > 100 µM (inactive)
- GI50 (IGROV-1): > 50 µM (inactive)
- GI50 (SN12C): > 50 µM (inactive)
- GI50 (PC-3): > 50 µM (inactive)
- GI50 (U-251): > 100 µM (inactive)
- GI50 (HOP-92): > 50 µM (inactive)
- GI50 (Malme-3M): > 100 µM (inactive)
- GI50 (UACC-257): > 50 µM (inactive)
- GI50 (SNB-19): > 50 µM (inactive)
- GI50 (SK-MEL-5): > 50 µM (inactive)
- GI50 (ACHN): > 50 µM (inactive)
- GI50 (SF-539): > 100 µM (inactive)
- GI50 (MDA-MB-435): > 100 µM (inactive)
- GI50 (HL-60): > 100 µM (inactive)
- GI50 (MOLT-4): > 50 µM (inactive)
- GI50 (DU-145): > 100 µM (inactive)
- GI50 (NCI/ADR-RES): > 100 µM (inactive)
- GI50 (NCI-H23): > 100 µM (inactive)
- GI50 (SK-MEL-2): > 50 µM (inactive)
- GI50 (MDA-N): > 50 µM (inactive)
- GI50 (SW-620): > 100 µM (inactive)
- GI50 (TK-10): > 50 µM (inactive)
- GI50 (HT-29): > 50 µM (inactive)
- GI50 (A549): > 100 µM (inactive)
- GI50 (NCI-H522): > 100 µM (inactive)
- GI50 (RXF 393): > 50 µM (inactive)
- GI50 (HOP-62): > 50 µM (inactive)
- GI50 (LOX IMVI): > 50 µM (inactive)
- GI50 (Hs-578T): > 100 µM (inactive)
- GI50 (KM12): > 50 µM (inactive)
- GI50 (A498): > 50 µM (inactive)
- GI50 (SR): > 50 µM (inactive)
- GI50 (CAKI-1): > 100 µM (inactive)
- GI50 (T47D): > 50 µM (inactive)
- GI50 (NCI-H460): > 50 µM (inactive)
- GI50 (OVCAR-3): > 100 µM (inactive)
- GI50 (786-0): > 50 µM (inactive)
- GI50 (EKVX): > 100 µM (inactive)
- GI50 (NCI-H226): > 100 µM (inactive)
- GI50 (HCC 2998): > 50 µM (inactive)
- GI50 (M14): > 50 µM (inactive)

Compound: N/C(=N\N/C=C1\C=Nc2cc(C(F)(F)F)ccc2C1=O)NO
- GI50 (SF-268): > 10 µM (inactive)
- GI50 (MDA-MB-231): > 10 µM (inactive)
- GI50 (SF-295): > 10 µM (inactive)
- GI50 (UO-31): > 10 µM (inactive)
- GI50 (UACC-62): > 10 µM (inactive)
- GI50 (SK-OV-3): > 10 µM (inactive)
- GI50 (SNB-75): 0.148 µM (active)
- GI50 (OVCAR-4): > 10 µM (inactive)
- GI50 (BT-549): > 10 µM (inactive)
- GI50 (HCT-15): > 10 µM
- GI50 (COLO 205): > 10 µM (inactive)
- GI50 (HCT-116): > 10 µM (inactive)
- GI50 (OVCAR-8): > 10 µM (inactive)
- GI50 (SK-MEL-28): > 10 µM (inactive)
- GI50 (MCF7): > 10 µM (inactive)
- GI50 (CCRF-CEM): > 10 µM (inactive)
- GI50 (K562): 7.67 µM (inactive)
- GI50 (OVCAR-5): > 10 µM (inactive)
- GI50 (IGROV-1): > 10 µM (inactive)
- GI50 (SN12C): > 10 µM (inactive)
- GI50 (PC-3): > 10 µM (inactive)
- GI50 (U-251): > 10 µM (inactive)
- GI50 (HOP-92): > 10 µM (inactive)
- GI50 (Malme-3M): > 10 µM (inactive)
- GI50 (UACC-257): > 10 µM (inactive)
- GI50 (SNB-19): > 10 µM (inactive)
- GI50 (SK-MEL-5): > 10 µM (inactive)
- GI50 (ACHN): > 10 µM (inactive)
- GI50 (SF-539): > 10 µM (inactive)
- GI50 (MDA-MB-435): > 10 µM (inactive)
- GI50 (HL-60): > 10 µM (inactive)
- GI50 (MOLT-4): > 10 µM (inactive)
- GI50 (DU-145): > 10 µM (inactive)
- GI50 (NCI/ADR-RES): > 10 µM (inactive)
- GI50 (NCI-H23): > 10 µM (inactive)
- GI50 (RPMI-8226): > 10 µM (inactive)
- GI50 (SK-MEL-2): > 10 µM (inactive)
- GI50 (MDA-N): > 10 µM (inactive)
- GI50 (SW-620): > 10 µM (inactive)
- GI50 (TK-10): > 10 µM (inactive)
- GI50 (HT-29): > 10 µM (inactive)
- GI50 (A549): > 10 µM (inactive)
- GI50 (NCI-H522): > 10 µM (inactive)
- GI50 (RXF 393): > 10 µM (inactive)
- GI50 (HOP-62): > 10 µM (inactive)
- GI50 (LOX IMVI): > 10 µM (inactive)
- GI50 (Hs-578T): > 10 µM (inactive)
- GI50 (KM12): 0.001 µM (active)
- GI50 (A498): > 10 µM (inactive)
- GI50 (SR): > 10 µM (inactive)
- GI50 (CAKI-1): > 10 µM (inactive)
- GI50 (T47D): > 10 µM (inactive)
- GI50 (NCI-H460): > 10 µM (inactive)
- GI50 (OVCAR-3): > 10 µM (inactive)
- GI50 (786-0): > 10 µM (inactive)
- GI50 (EKVX): > 10 µM (inactive)
- GI50 (NCI-H226): > 10 µM (inactive)
- GI50 (HCC 2998): > 10 µM (inactive)
- GI50 (M14): > 10 µM (inactive)
